Measurements published in patent publication US20230135635A1, “INHIBITORS OF ULK1/2 AND METHODS OF USING SAME” (SALK INSTITUTE FOR BIOLOGICAL STUDIES, priority 2020, published 2023).

Target: T1, recombinant human ULK1 protein (1-649) (Homo sapiens, UniProt O75385)
T1 construct: recombinant human ULK1 protein (1-649, SignalChem #U01-11G); purchased SignalChem U01-11G
T1 sequence (O75385 1-649): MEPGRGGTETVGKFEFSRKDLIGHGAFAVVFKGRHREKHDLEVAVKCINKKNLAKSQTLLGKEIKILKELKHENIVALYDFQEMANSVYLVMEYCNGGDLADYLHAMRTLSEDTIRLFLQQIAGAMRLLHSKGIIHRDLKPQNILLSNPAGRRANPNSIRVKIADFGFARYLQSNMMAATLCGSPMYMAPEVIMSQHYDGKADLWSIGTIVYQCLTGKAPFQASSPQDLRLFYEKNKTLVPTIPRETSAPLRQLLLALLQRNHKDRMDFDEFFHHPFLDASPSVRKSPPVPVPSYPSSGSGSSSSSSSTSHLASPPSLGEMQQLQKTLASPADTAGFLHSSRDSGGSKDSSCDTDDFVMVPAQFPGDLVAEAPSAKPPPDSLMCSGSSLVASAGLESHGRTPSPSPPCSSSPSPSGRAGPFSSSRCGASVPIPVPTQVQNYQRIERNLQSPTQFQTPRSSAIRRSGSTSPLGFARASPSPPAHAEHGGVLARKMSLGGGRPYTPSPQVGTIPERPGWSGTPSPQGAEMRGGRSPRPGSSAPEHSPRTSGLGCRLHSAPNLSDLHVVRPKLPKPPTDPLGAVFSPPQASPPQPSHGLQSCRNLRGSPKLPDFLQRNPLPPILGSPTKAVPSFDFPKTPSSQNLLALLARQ
Test: ULK1 inhibition assay (ADP Glo)
Type: biochemical
Conditions: Table 1; 25 uM ATP, MBP substrate, one hour
Experimental: Illustrative compounds of Formula I and related analogs are shown in Table 1 (along with their respective IC50 values for ULK1 inhibition assays). For ADP Glo assay, IC50s are represented nM, with A representing IC50<1 nM, B representing 10 nM>IC50>1 nM, and C representing IC50>10 nM. NT indicates the compound was not tested. ULK1 inhibition assays were performed in a 5 uL reaction volume containing 2 ug/mL recombinant human ULK1 protein (1-649, SignalChem #U01-11G) and 80 ug/mL myelin basic protein (MBP, Sigma-Aldrich #M1891) in the presence of 25 uM ATP (Sigma-Aldrich A7699). ULK 1 inhibition was assessed after one hour. Compounds were tested in triplicate in a 16-dose IC50 mode with 3-fold serial dilution and a starting dose of 30 uM. Staurosporine, a non-selective protein kinase inhibitor, was used in the assay as a positive control.
According to another embodiment, the present disclosure provides methods of producing the above-defined compounds. The compounds may be synthesized using any suitable techniques. Advantageously, these compounds are conveniently synthesized from readily available starting materials. Synthetic chemistry transformations and methodologies useful in synthesizing the compounds described herein are known in the art and include, for example, those described in R. Larock, Comprehensive Organic Transformations (1989); T. W. Greene and P. G. M. Wuts, Protective Groups in Organic Synthesis, 2d. Ed. (1991); L. Fieser and M. Fieser, Fieser and Fieser's Reagents for Organic Synthesis (1994); and L. Paquette, ed., Encyclopedia of Reagents for Organic Synthesis (1995).). In general, synthesis and measurements of ULK1 inhibitory activity of the compounds described herein was performed using method analogous to those previously described in PCT International Application No. PCT/US2015/046777 which is hereby incorporated by reference in its entirety.

| SMILES | IC50 |
| --- | --- |
| CNCC(=O)N1CCc2ccc(Nc3ncc(Br)c(Nc4ccccc4C(=O)NC)n3)cc2C1 [Compound A153, 2-{5-Bromo-2-[2-(2-methylamino-acetyl)-1,2,3,4-tetrahydro-isoquinolin-7-ylamino]-pyrimidin-4-ylamino}-N-methyl-benzamide] | > 10 nM |
| CCNC(=O)N1CCc2cc(Nc3ncc(C(F)(F)F)c(NC4CC4)n3)ccc2C1 [Compound A6] | 1 to 10 nM |
| CCN(CC)C(=O)N1CCc2cc(Nc3ncc(C(F)(F)F)c(NC4CC4)n3)ccc2C1 [Compound A10] | 1 to 10 nM |
| CNC(=O)c1ccccc1Nc1nc(Nc2ccc3c(c2)CN(C(=O)CCC(=O)O)CC3)ncc1Br [Compound A156, 4-{7-[5-Bromo-4-(2-methylcarbamoyl-phenylamino)-pyrimidin-2-ylamino]-3,4-dihydro-1H-isoquinolin-2-yl}-4-oxo-butyric acid] | > 10 nM |
| FC(F)(F)c1cnc(Nc2ccc3c(c2)CN(CCN2CCOCC2)CC3)nc1NC1CC1 [Compound A97] | 1 to 10 nM |
| CNC(=O)c1ccccc1Nc1nc(Nc2ccc3c(c2)CN(C(=O)CCN)CC3)ncc1Br [Compound A155, 2-{2-[2-(3-Amino-propionyl)-1,2,3,4-tetrahydro-isoquinolin-7-ylamino]-5-bromo-pyrimidin-4-ylamino}-N-methyl-benzamide] | > 10 nM |
| FC(F)(F)c1cnc(Nc2ccc3c(c2)CCN(CC2CCNC2)C3)nc1NC1CC1 (stereo not drawn) [Compound A43] | < 1 nM |
| OCCN1CCc2cc(Nc3ncc(C(F)(F)F)c(NC4CC4)n3)ccc2C1 [Compound A53] | < 1 nM |
| FC(F)(F)c1cnc(Nc2ccc3c(c2)CCN(Cc2ccncn2)C3)nc1NC1CC1 [Compound A75] | < 1 nM |
| O=C(N1CCOCC1)N1CCc2cc(Nc3ncc(C(F)(F)F)c(NC4CC4)n3)ccc2C1 [Compound A2] | 1 to 10 nM |
| CN1CCN(C(=O)N2CCc3cc(Nc4ncc(C(F)(F)F)c(NC5CC5)n4)ccc3C2)CC1 [Compound A37] | < 1 nM |
| CNCC(=O)N1CCc2cc(Nc3ncc(Br)c(Nc4ccccc4C(=O)NC)n3)ccc2C1 [Compound A133, 2-{5-Bromo-2-[2-(2-methylamino-acetyl)-1,2,3,4-tetrahydro-isoquinolin-6-ylamino]-pyrimidin-4-ylamino}-N-methyl-benzamide] | > 10 nM |
| NC(=O)CCN1CCc2cc(Nc3ncc(C(F)(F)F)c(NC4CC4)n3)ccc2C1 [Compound A58] | < 1 nM |
| CNC(=S)Nc1cnc(Nc2ccc3c(c2)CCNC3)nc1NC1CC1 [Compound A24] | > 10 nM |
| CNC(=O)c1ccccc1Nc1nc(Nc2ccc3c(c2)CN(Cc2ccncc2)CC3)ncc1Br [Compound A162, 2-[5-Bromo-2-(2-pyridin-4-ylmethyl-1,2,3,4-tetrahydro-isoquinolin-7-ylamino)-pyrimidin-4-ylamino]-N-methyl-benzamide] | > 10 nM |
| FC(F)(F)c1cnc(Nc2ccc3c(c2)CN(Cc2ccco2)CC3)nc1NC1CC1 [Compound A89] | 1 to 10 nM |
| CNC(=O)c1ccccc1Nc1nc(Nc2ccc3c(c2)CCN(Cc2ccncn2)C3)ncc1Br [Compound A146, 2-[5-Bromo-2-(2-pyrimidin-4-ylmethyl-1,2,3,4-tetrahydro-isoquinolin-6-ylamino)-pyrimidin-4-ylamino]-N-methyl-benzamide] | > 10 nM |
| CNC(=O)c1ccccc1Nc1nc(Nc2ccc3c(c2)CCN(Cc2ccncc2)C3)ncc1Br [Compound A131, 2-[5-Bromo-2-(2-pyridin-4-ylmethyl-1,2,3,4-tetrahydro-isoquinolin-6-ylamino)-pyrimidin-4-ylamino]-N-methyl-benzamide] | > 10 nM |
| FC(F)(F)c1cnc(Nc2ccc3c(c2)CNCC3)nc1NC1CC1 [Compound A16] | < 1 nM |
| CNC(=O)c1ccccc1Nc1nc(Nc2ccc3c(c2)CN(CCC(N)=O)CC3)ncc1Br [Compound A166, 2-{5-Bromo-2-[2-(2-carbamoyl-ethyl)-1,2,3,4-tetrahydro-isoquinolin-7-ylamino]-pyrimidin-4-ylamino}-N-methyl-benzamide] | > 10 nM |
| O=C(CCO)N1CCc2cc(Nc3ncc(C(F)(F)F)c(NC4CC4)n3)ccc2C1 [Compound A68] | < 1 nM |
| O=C(NCCO)c1cnc(Nc2ccc3c(c2)CCNC3)nc1NC1CC1 [Compound A36] | > 10 nM |
| CNC(=O)c1ccccc1Nc1nc(Nc2ccc3c(c2)C[N+](C)(C)CC3)ncc1Br [Compound A168, 7-[5-Bromo-4-(2-methylcarbamoyl-phenylamino)-pyrimidin-2-ylamino]-2,2-dimethyl-1,2,3,4-tetrahydro-isoquinolinium; iodide] | > 10 nM |
| CNC(=O)c1ccccc1Nc1nc(Nc2ccc3c(c2)CCN(Cc2ccccn2)C3)ncc1Br [Compound A144, 2-[5-Bromo-2-(2-pyridin-2-ylmethyl-1,2,3,4-tetrahydro-isoquinolin-6-ylamino)-pyrimidin-4-ylamino]-N-methyl-benzamide] | > 10 nM |
| O=C(CN1CCc2ccc(Nc3ncc(C(F)(F)F)c(NC4CC4)n3)cc2C1)N1CCOCC1 [Compound A100] | < 1 nM |
| CNC(=O)c1ccccc1Nc1nc(Nc2ccc3c(c2)CN(C)CC3)ncc1Br [Compound A167, 2-[5-Bromo-2-(2-methyl-1,2,3,4-tetrahydro-isoquinolin-7-ylamino)-pyrimidin-4-ylamino]-N-methyl-benzamide] | > 10 nM |

Same assay, conditions: Table 2

| SMILES | IC50 |
| --- | --- |
| COC(=O)c1ccccc1Oc1nc(Nc2ccc(C(N)=O)cc2)ncc1Br [Compound B41] | > 1000 nM |
| COC(=O)c1ccccc1Oc1nc(Nc2ccc(N(C)C)cc2)ncc1Br [Compound B24] | 100 to 1000 nM |
| COC(=O)c1ccccc1Oc1nc(Nc2ccc(C(F)(F)F)cc2)ncc1Br [Compound B42] | > 1000 nM |
| CNC(=O)c1ccccc1Oc1nc(Nc2ccc3c(c2)OCO3)ncc1C(F)(F)F [Compound B52, 2-((2-(Benzo[d][1,3]dioxol-5-ylamino)-5-(trifluoromethyl)pyrimidin-4-yl)oxy)-N-methyl benzamide] | > 1000 nM |
| COC(=O)c1ccccc1Oc1nc(Nc2ccc3c(c2)OCO3)ncc1Br [Compound B20] | > 1000 nM |
| COC(=O)c1ccccc1Oc1nc(Nc2ccc(O)c(O)c2)ncc1Br [Compound B46] | > 1000 nM |
| COC(=O)c1ccccc1Oc1nc(Nc2ccc(OC)c(OC)c2)ncc1Br [Compound B17] | > 1000 nM |
| COC(=O)c1ccccc1Oc1nc(Nc2ccc(N3CCCC3)cc2)ncc1Br [Compound B27] | > 1000 nM |
| COC(=O)c1ccccc1Oc1nc(Nc2ccc(OC)nc2)ncc1Br [Compound B39] | > 1000 nM |
| COc1cc(Nc2ncc(Br)c(Oc3ccccc3C(=O)N3CCOCC3)n2)cc(OC)c1OC [Compound B9] | > 1000 nM |
| COC(=O)c1ccc(Nc2ncc(Br)c(Oc3ccccc3C(=O)OC)n2)cc1 [Compound B43] | > 1000 nM |

Same assay, conditions: Table 3

| SMILES | IC50 |
| --- | --- |
| COCc1ccccc1Nc1nc(Nc2cc(OC)c(OC)c(OC)c2)ncc1Br [Compound C2] | < 5 nM |
| COc1cc(Nc2ncc(Br)c(Oc3ccc(NC(=O)C4(C(=O)Nc5ccc(F)cc5)CC4)cc3F)n2)cc(OC)c1OC [Compound C28, N-(4-((5-Bromo-2-((3,4,5-trimethoxyphenyl)amino)pyrimidin-4-yl)oxy)-3-fluorophenyl)-N-(4-fluorophenyl)cyclopropane-1,1-dicarboxamide] | > 100 nM |
| COc1cc(Nc2ncc(C(F)(F)F)c(Nc3ccccc3CO)n2)cc(OC)c1OC [Compound C3] | < 5 nM |
| COc1cc(Nc2ncc(Br)c(Nc3ccccc3COC(C)=O)n2)cc(OC)c1OC [Compound C17] | 5 to 100 nM |
| COc1cc(Nc2nccc(Nc3ccccc3CN)n2)cc(OC)c1OC [Compound C13] | > 100 nM |
| COc1cc(Nc2ncc(Br)c(Nc3ccccc3COCC(=O)N(C)C)n2)cc(OC)c1OC [Compound C19] | > 100 nM |
| CC(=O)NCc1ccc(Nc2ncc(C(F)(F)F)c(NC3CC3)n2)cc1 [Compound D5] | 5 to 100 nM |
| COc1cc(Oc2ncc(Br)c(Nc3ccccc3CO)n2)cc(OC)c1OC [Compound C10] | > 100 nM |
